Among the data in patent US20170283426A1, “COMPOUNDS FOR THE INHIBITION OF CYCLOPHILINS AND USES THEREOF” (Merck Patent GmbH, priority 2016, published 2017) are IC50 and Kd values, retold here.

A value given as a limit tells only on which side of the number the result lay.

Experiment [1] concerns the target T1, CypD (Homo sapiens, UniProt P30405). In words: CypD binding assay, competition Fluorescence-Polarisation with fluorescine labelled cyclosporin. On the procedure: The binding capacity of the compounds were measured using a competition Fluorescence-Polarisation based assay with fluorescine labelled cyclosporin. The protocol used was adapted from Hausch et al, Med Chem lett 2010, p 536.

Experiment [2] addresses T1, CypD. In words: SPR binding. The note with it: SPR surface; read-out: SPR CypD (KDss).
From the text: Binding was confirmed on an SPR surface using a protocol adapted from Mori et al., J. Biomolecular Screening, 2009 p 419.

T1 sequence (P30405 30-207): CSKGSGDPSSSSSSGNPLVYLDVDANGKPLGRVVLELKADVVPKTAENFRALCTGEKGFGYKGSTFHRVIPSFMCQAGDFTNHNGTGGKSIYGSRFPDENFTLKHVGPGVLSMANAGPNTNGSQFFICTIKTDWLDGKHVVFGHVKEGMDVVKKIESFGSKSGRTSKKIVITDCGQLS

On to `O=C(NCCc1cccc(C(F)(F)F)c1)C(=O)NCCc1ccc2c(c1)[C@H]1C[C@@H](N2)[C@H](O)CO1` [Compound 5, N1-(2-((2R,3S,6R)-3-hydroxy-2,3,4,6-tetrahydro-1H-2,6-methanobenzo[c][1,5]oxazocin-8-yl)ethyl)-N2-(3-(trifluoromethyl)phenethyl)oxalamide], for which the IC50 on CypD [1] was < 10 µM. Also, the Kd on CypD [2] was < 10 µM.
On to `CC(C)CNC(=O)C(=O)NCCc1ccc2c(c1)[C@H]1C[C@@H](N2)[C@H](O)CO1` [Compound 4, N-1-(2-((2R,3S,6R)-3-hydroxy-2,3,4,6-tetrahydro-1H-2,6-methanobenzo[c][1,5]oxazocin-8-yl)ethyl)-N2-isobutyloxalamide], for which, on CypD [1], the concentration for half-maximal inhibition (IC50) is < 10 µM. Besides, the Kd on CypD [2] was < 10 µM.
Consider `O=C(NCCc1ccc2c(c1)[C@H]1C[C@@H](N2)[C@H](O)CO1)C(=O)NCc1cccc(C(F)(F)F)c1` [Compound 11, N1-(2-((2R,3S,6R)-3-hydroxy-2,3,4,6-tetrahydro-1H-2,6-methanobenzo[c][1,5]oxazocin-8-yl)ethyl)-N2-(3-(trifluoromethyl)benzyl)oxalamide], for which the IC50 on CypD [1] lay in the range of 10 to 100 µM. On CypD [2], the Kd lay within 10 to 100 µM.
The molecule `CSc1ccccc1[C@H]1CCCN1C(=O)C(=O)NCCc1ccc2c(c1)[C@H]1C[C@@H](N2)[C@H](O)CO1` [Compound 6, N-[2-((1R,9R,10S)-10-hydroxy-12-oxa-8-aza-tricyclo[7.3.1.02,7]trideca-2(7),3,5-trien-4-yl)-ethyl]-2-[(R)-2-(2-methylsulfanyl-phenyl)-pyrrolidin-1-yl]-2-oxo-acetamide] gave an IC50 on CypD [1] of 10 to 100 µM. Moreover, the Kd at CypD [2] lay within 10 to 100 µM.
As for `CC(C)(C)CNC(=O)C(=O)NCCc1ccc2c(c1)[C@@H]1C[C@H](N2)[C@H](O)CO1` [Compound 10, N1-(2-((2S,3S,6S)-3-hydroxy-2,3,4,6-tetrahydro-1H-2,6-methanobenzo[c][1,5]oxazocin-8-yl)ethyl)-N2-neopentyloxalamide], the IC50 at CypD [1] lay in the range of 10 to 100 µM. The Kd at CypD [2] fell in the range of 10 to 100 µM.
Consider `O=C(NCc1ccc2c(c1)[C@@H]1C[C@H](N2)[C@H](O)CO1)C(=O)NC1CCCC1` [Compound 13, N-Cyclopentyl-N′-((1S,9S,10S)-10-hydroxy-12-oxa-8-aza-tricyclo[7.3.1.02,7]trideca-2,4,6-trien-4-ylmethyl)-oxalamide], for which the IC50 on CypD [1] lay in the range of 10 to 100 µM. Also, on CypD [2], the Kd was 10 to 100 µM.
In turn, `O=C(NCCc1ccccc1)C(=O)NCCc1ccc2c(c1)[C@@H]1C[C@H](N2)[C@H](O)CO1` [Compound 8, N1-(2-((2S,3S,6S)-3-hydroxy-2,3,4,6-tetrahydro-1H-2,6-methanobenzo[c][1,5]oxazocin-8-yl)ethyl)-N2-phenethyloxalamide] yielded an IC50 at CypD [1] of 10 to 100 µM. Further, at CypD [2], the Kd lay within 10 to 100 µM.
At CypD [1], `O=C(NCCc1cccc(C(F)(F)F)c1)C(=O)NCCc1ccc2c(c1)[C@@H]1C[C@H](N2)[C@H](O)CO1` [Compound 12, N1-(2-((2S,3S,6S)-3-hydroxy-2,3,4,6-tetrahydro-1H-2,6-methanobenzo[c][1,5]oxazocin-8-yl)ethyl)-N2-(3-(trifluoromethyl)phenethyl)oxalamide] registered an IC50 of 10 to 100 µM. Further, the Kd on CypD [2] fell in the range of 10 to 100 µM.
Regarding `O=C(NCCc1ccccc1)C(=O)NCCc1ccc2c(c1)[C@H]1C[C@@H](N2)[C@H](O)CO1` [Compound 3, N1-(2-((2R,3S,6R)-3-hydroxy-2,3,4,6-tetrahydro-1H-2,6-methanobenzo[c][1,5]oxazocin-8-yl)ethyl)-N2-phenethyloxalamide], the IC50 at CypD [1] was < 10 µM. The Kd on CypD [2] was < 10 µM.
For `O=C(NCCc1ccc2c(c1)[C@H]1C[C@@H](N2)[C@H](O)CO1)C(=O)N[C@@H]1C[C@H]2CC[C@@H]1C2` [Compound 2, N-Bicyclo[2.2.1]hept-2-yl-N′-[2-((1R,9R,10S)-10-hydroxy-12-oxa-8-aza-tricyclo[7.3.1.02,7]trideca-2,4,6-trien-4-yl)-ethyl]-oxalamide], the IC50 at CypD [1] is < 10 µM. Also, the Kd on CypD [2] is < 10 µM.
